Common to all, as to test: DTP human tumour cell line panel, 48 h
In test [1] the test system is HT29 colon.
Test [2] has as its system IGROV1 ovarian.
In test [3] the test system is NCI-H460 lung.
The test system of test [4] is OVCAR-4 ovarian.
The test system of test [5] is SF-295 CNS.
Test [6] has as its system SF-539 CNS.
In test [7] the test system is SK-OV-3 ovarian.
Test [8] deals with UACC-257 melanoma.
Test [9] has as its system A498 renal.
Test [10] relates to HCC-2998 colon.

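Protocol summary: plate cells (96-well), add compound at 5 concentrations, incubate 48 h, interpolate endpoints linearly. Abbreviation: GI50, concentration required for 50% inhibition of growth. Definition used: TGI = concentration required for complete inhibition of growth.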

As usually defined, the TGI is the concentration giving total growth inhibition. A lower TGI goes with more potent growth arrest. As usually defined, the GI50 is the concentration giving 50% growth inhibition.

As for `COc1ccc(C(C#N)NNc2nc(C)cc(=O)[nH]2)cc1OC` (stereo not given), the TGI in test [1], in test [2], in [3], in test [4], in test [5] and in test [6] was greater than 100 µM throughout. Also, the total growth inhibition concentration (TGI) in test [7] and in test [8] was greater than 100 µM in each case.

In the case of `Cn1nc(-c2ccccc2)c(C(=O)/C=C/c2ccccc2)c(N2CCOCC2)c1=O`, the TGI was determined as 35 µM in test [9]; 33 µM in test [1]; 52.9 µM in test [2]; 54.7 µM in [3]; 39.5 µM in test [6]; 81 µM in [7].

On to `CO/N=C(\C)c1ccc(Nc2cc(-c3ccccc3)nc3c(O)cccc23)cc1`, for which the GI50 in test [9] was 21.4 µM; in test [10] it was 22.1 µM; in test [1], 21.9 µM; in test [2], 13.5 µM; in test [4] it was 19.9 µM; in [5], 12.7 µM. In addition, the GI50 in test [6] is 17.6 µM; in test [7], 18.8 µM; in test [8] it was 15.9 µM. The TGI in test [9] stood at 41.6 µM; in test [10], 37.1 µM; in [1], 49.5 µM; in test [2], 45.2 µM; in [4], 50.7 µM; in test [5], 27.9 µM. Further, the concentration for total growth inhibition (TGI) was 32.1 µM in [6], 35.5 µM in test [7] and 32.3 µM in test [8].

In the case of `CC12CCC(=O)C=C1CCC1C2C(O)CC2(C)C(c3csc(N)n3)CCC12` (stereo not given), the concentration for total growth inhibition (TGI) in [9], in [10], in test [1], in test [2], in test [4] and in test [5] was greater than 100 µM each time. In addition, the concentration for total growth inhibition (TGI) in test [6], in test [7] and in [8] was greater than 100 µM each time.

Consider `CC(=O)n1c2ccccc2c2nc3nc(Oc4ccc(C)cc4)c4ccccc4c3cc21`, for which the TGI in [10], in test [1], in test [2], in [3], in test [4] and in test [5] was greater than 100 µM throughout. The total growth inhibition concentration (TGI) in [6], in test [7] and in [8] was greater than 100 µM each time.

Take `CCOC(=O)C(=O)Nc1c(C)cccc1C`: the TGI in [10], in test [1], in test [2], in test [3], in test [4] and in test [5] was greater than 100 µM each time. Besides, the total growth inhibition concentration (TGI) in test [6], in [7] and in test [8] was greater than 100 µM in each case.

On to `NC(=O)N1N=C2c3ccccc3SC[C@H]2[C@@H]1c1ccccc1`, for which the TGI is 76.9 µM in test [9]; greater than 100 µM in test [10]; 38 µM in test [1]; 68.4 µM in test [2]; 40.8 µM in [3]; 73.4 µM in [4]. Besides, the TGI in test [5] amounted to 80.4 µM; in test [8], 54 µM.

Consider `COc1cc(/C=C/C(=O)c2sc(Nc3ccccc3)nc2C)ccc1O`, for which the TGI in test [9], in [10], in test [1], in test [2], in test [3] and in test [5] was greater than 100 µM throughout. For the same compound, the TGI in test [6], in test [7] and in test [8] was greater than 100 µM in each case.

As for `CCCCCCCCCCCC[n+]1ccc(CCCCCCCCC)cc1`, in [9], the GI50 was 1.02 µM and the TGI was 2.37 µM. In test [7], the GI50 is 1.51 µM and the TGI is 2.89 µM.

As for `CC(C)C1CC(O)O[C@@H]([C@@H](C)[C@H]2CC(=O)[C@@H]3[C@@H]4[C@@H](O)[C@H](O)[C@H]5[C@@H](O)[C@H](O)CC[C@]5(C)[C@H]4CC[C@]23C)C1` (stereo not given in full), the TGI in test [10], in test [1], in [2], in test [3], in test [4] and in test [5] was greater than 100 µM throughout. Also, the TGI in [6], in test [7] and in test [8] was greater than 100 µM in each case.

As for `c1cnc2[nH]cc(-c3csc(-c4cn(CCCCN5CCOCC5)c5ccccc45)n3)c2c1`, the GI50 in test [10] is 1.74 µM; in [2], 1.43 µM; in test [4] it was 2.06 µM; in test [5], 1.92 µM; in test [6], 1.71 µM; in [7] it was 2.34 µM. Also, the GI50 in test [8] is 1.84 µM. Moreover, the TGI worked out at 3.26 µM in test [10]; 4.25 µM in [2]; 5.69 µM in [4]; 4.04 µM in test [5]; 3.13 µM in test [6]; 5.74 µM in test [7]. In addition, in test [8], the TGI came to 3.53 µM.

`COC(=O)c1csc(-c2nc(CCNC(=O)OC(C)(C)C)sc2Br)n1`: the TGI in test [9], in [10], in test [1], in test [2], in [3] and in test [5] was greater than 100 µM in each case. Besides, the TGI in [6], in test [7] and in test [8] was greater than 100 µM throughout.

In the case of `CC/C=C\C/C=C\C/C=C\CCCCCCCC(=O)OCC`, the TGI in [9], in test [10], in test [1], in test [2], in test [4] and in [5] was greater than 100 µM each time. Further, the TGI in test [6], in [7] and in [8] was greater than 100 µM throughout.

Regarding `CC1=C(O)C(=O)C2C(=O)C1C(C)C2c1ccc(Cl)cc1` (stereo not given), the TGI in [9], in [10], in test [1], in test [2], in [4] and in [5] was greater than 100 µM throughout. Besides, the concentration for total growth inhibition (TGI) in test [6] and in test [7] was greater than 100 µM in each case.

For `COc1cc(CNc2ccc(C(C)C)cc2)cc(OC)c1OC`, the TGI amounted to 67.7 µM in test [9]; 33.3 µM in test [1]; 70 µM in test [2]; 26.5 µM in [3]; 65.8 µM in test [4]; 35.8 µM in [6]. In addition, the TGI in test [7] is 46.2 µM; in test [8], 61.7 µM.

In the case of `Nc1nc2c(c(=O)[nH]1)CN(c1ccc(S(N)(=O)=O)cc1)CN2`, the TGI in test [9], in test [1], in test [2], in test [3], in test [4] and in [5] was greater than 100 µM in each case. In test [8], this compound had a TGI greater than 100 µM.

Take `COC(=O)C1C2C=CC(C2)N1[C@@H](C)c1ccccc1` (stereo not given in full): the TGI in test [9], in [10], in test [1], in [2], in test [3] and in test [5] was greater than 100 µM in each case. The TGI in test [6], in [7] and in test [8] was greater than 100 µM throughout.

Turning to `COc1cccc(C(=O)C2C(=O)N(C)CCc3ccccc32)c1OC` (stereo not given), the TGI in test [9], in [1], in [2], in test [3], in test [4] and in [7] was greater than 100 µM in each case. In test [8], this compound gave a TGI greater than 100 µM.

With `COC(=O)CNC(=O)[C@@H](OC)[C@@H]1Cc2cc3cc(OC4CC(OC5CC(O)C(O)C(C)O5)C(O)C(C)O4)c(C)c(O)c3c(O)c2C(=O)[C@H]1OC1CC(OC2CC(OC3CC(C)(O)C(O)C(C)O3)C(O)C(C)O2)C(O)C(C)O1` (stereo not given in full), the GI50 in test [10] was 0.207 µM; in test [1], 0.171 µM; in test [2], 0.192 µM; in test [3], 0.097 µM; in [4], 0.305 µM; in test [5] it was 0.109 µM. Further, the figures for the concentration for 50% growth inhibition (GI50) in [6], in test [7] and in test [8] were 0.141 µM, 0.444 µM and 0.146 µM, respectively. Besides, the TGI was 1.7 µM in [10]; greater than 50 µM in test [1]; greater than 50 µM in test [2]; greater than 50 µM in [3]; 5.4 µM in [4]; greater than 50 µM in [5]. Moreover, the TGI in test [6] is 2.3 µM; in test [7] it was greater than 50 µM; in [8], 1.58 µM.

For the compound `COc1c(N2CCN(CN3C(=O)C(=Nc4ccc(S(=O)(=O)Nc5ncccn5)cc4)c4ccccc43)C(C)C2)c(F)cc2c(=O)c(C(=O)O)cn(C3CC3)c12` (stereo not given), the GI50 in test [9] was 0.833 µM; in test [1] it was 22.3 µM; in test [2] it was 19.2 µM; in [3], 22.4 µM; in [4] it was greater than 50 µM; in [5] it was greater than 50 µM. In addition, the results for the GI50 in [6] and in test [8] were greater than 50 µM and 47 µM, respectively. For the same compound, the TGI in [9] is 14.2 µM; in test [1], greater than 50 µM; in [2] it was greater than 50 µM; in test [3] it was greater than 50 µM; in [4], greater than 50 µM; in test [5], greater than 50 µM. In addition, the total growth inhibition concentration (TGI) in test [6] and in test [8] was greater than 50 µM in each case.

In the case of `CCCCCCCCCCCCCCCC(=O)OCC1OC(n2c(O)c(N=NC(N)=S)c3ccc([N+](=O)[O-])cc32)C(OC(C)=O)C1OC(C)=O` (stereo not given), the TGI in [10], in [1], in test [2], in test [3], in test [4] and in test [5] was greater than 100 µM throughout. In addition, the TGI in test [6], in test [7] and in [8] was greater than 100 µM each time.

Take `CCC(CC)n1c(C)nc2c1C(=O)c1ccccc1C2=O`: the total growth inhibition concentration (TGI) in test [10] is greater than 100 µM; in test [1] it was greater than 100 µM; in [2], greater than 100 µM; in test [3], 49.7 µM; in test [4], greater than 100 µM; in test [5] it was greater than 100 µM. The TGI in [6] is greater than 100 µM; in [7], greater than 100 µM; in test [8], 72.7 µM.

As for `CC(=O)Oc1ccc(O)c(O)c1C/C=C(\C)CC/C=C(\C)CC/C=C(\C)CCC=C(C)C`, the concentration for total growth inhibition (TGI) was 2.26 µM in [10]; 1.18 µM in [1]; 1.31 µM in test [3]; 1.72 µM in test [4]; 4.27 µM in test [5]; 1.62 µM in [6]. In test [8], this compound yielded a concentration for total growth inhibition (TGI) of 2.26 µM.

For the compound `COc1ccc(C2S/C(=C\c3ccc(O)cc3)C(=O)N2NC(=O)Cc2ccccc2)cc1` (stereo not given), the TGI in [9], in [1], in test [2], in test [3], in test [4] and in test [5] was greater than 100 µM in each case. The TGI in [6], in [7] and in test [8] was greater than 100 µM throughout.

Turning to `CN(C)CCOc1ccc2c(c1)C/C(=C/c1ncc([N+](=O)[O-])n1C)C2=O`, the TGI turned out to be 5.54 µM in [9]; 4.92 µM in test [1]; 1.49 µM in [2]; 4.05 µM in test [3]; 5.84 µM in test [4]; 20.3 µM in test [5]. For the same compound, the TGI in test [6] is 21.2 µM; in test [7], 15 µM; in test [8] it was 14.7 µM.

As for `CC(C)NC(=O)OCCS(=O)c1c(Cl)c(Cl)nn1C` (stereo not given), the TGI in [9], in [1], in test [2], in test [3], in test [4] and in test [5] was greater than 100 µM throughout. In addition, the TGI in [6] and in test [7] was greater than 100 µM throughout.

With `O=c1cc(-c2ccccc2)c2cc3c(=O)ccoc3cc2o1`, the total growth inhibition concentration (TGI) was 78.7 µM in test [9]; greater than 100 µM in test [10]; greater than 100 µM in test [1]; greater than 100 µM in test [3]; greater than 100 µM in test [4]; greater than 100 µM in test [5]. In addition, the TGI in [6] and in test [8] was greater than 100 µM throughout.

As for `O=C(O)c1cc(=O)c2[nH]c3ccccc3c2s1`, the TGI in test [10], in test [2], in [3], in test [4], in [5] and in test [7] was greater than 100 µM in each case. The compound further yielded a TGI in [8] greater than 100 µM.

(Values after PubChem BioAssay (NCI).)
